Test results from patent publication US9522133B2, “Substituted 1,2,3,4-tetrahydrocyclopenta[b]indol-3-yl)acetic acid derivatives useful in the treatment of autoimmune and inflammatory disorders” (Arena Pharmaceuticals, Inc., priority 2008, dated 2016).
pEC50: −log10 of the molar value.

Experiments:
MOG-induced EAE = assay: MOG-induced experimental autoimmune encephalomyelitis (EAE) in mice; format: in vivo, mouse; details: female C57BL/6 mice, oral once a day day 3 to day 21, 0.3, 1 and 3 mg/kg; FIG. 10
Protocol: (§1) Female C57BL/6 mice (8 to 10 weeks of age at start of study) (Jackson Laboratory, Bar Harbor, Me.) were housed four per cage and maintained in a humidity-controlled (40-60%) and temperature-controlled (68-72° F.) facility on a 12 h:12 h light/dark cycle (lights on at 6:30 am) with free access to food (Harlan Teklad, Orange, Calif., Rodent Diet 8604) and water. Mice were allowed one week of habituation to the animal facility before testing.
Mice were immunized subcutaneously, 50 μL per hind flank, with a total of 100 μg MOG35-55 peptide emulsified 1:1 with Complete Freund's adjuvant containing 4 mg/mL heat-killed Mycobacterium tuberculosis. […]
Severity of disease symptoms was scored as follows (in increasing order of severity): 0=normal; 1=limp tail OR hind limb weakness; 2=limp tail AND limb weakness/weakness of 2 or more limbs; 3=severe limb weakness or single limb paralysis; 4=paralysis of 2 or more limbs; 5=death.
Mice were dosed orally, with vehicle or the 2nd enantiomer of compound 12 (isolated after resolution of compound 12 by HPLC, with a retention time of 13.9 min per the conditions reported in Example 1.29), once a day from day 3 until day 21. […] Mice were monitored daily from day 7 onward for disease symptoms. After the last dose on day 21, disease progression was monitored daily for 2 more weeks.

[1] = test system: peripheral blood lymphocyte (PBL) count; assay: Mouse peripheral lymphocyte lowering (PLL) assay; format: in vivo; details: male BALB/c mice, 5 hours post-dose, vs vehicle
Protocol: as §1, with “Male BALB/c” for “Female C57BL/6”, “(Charles River Laboratories, Wilmington, Mass.)” for “(8 to 10 weeks of age at start of study) (Jackson Laboratory, Bar Harbor, Me.)”, “(40 to 60%)” for “(40-60%)”, “(68 to 72°” for “(68-72°”
(§2) Mice were given an oral dose of Compound 5, Compound 7 or dosing vehicle (0.5% methylcellulose) in a total volume of 10 mL/kg. Peripheral blood samples were collected at 5 hours post-dose. The mice were anesthetized with isoflurane and blood was collected via cardiac puncture. A complete cell count (CBC), including lymphocyte count, was obtained using a CELL-DYN® 3700 (Abbott Laboratories, Abbott Park, Ill.) instrument. Results are presented in FIGS. 1 and 2, in which peripheral blood lymphocyte (PBL) count is shown for the 5 hour group.
as §2, with “given a 1.00 mg/kg” for “given an”, “of the 2nd enantiomer of compound 12 (isolated after resolution of compound 12 by HPLC, with a retention time of 13.9 min per the conditions reported in Example 1.29)” for “of Compound 5, Compound 7”, “(0.5% methylcellulose in sterile water)” for “(0.5% methylcellulose)”, “in FIG. 7,” for “in FIGS. 1 and 2,”

mean ankle diameter = assay: Collagen-induced arthritis in rats (ankle diameter); format: in vivo, rat; details: female Lewis rats, collagen injections day 0 and 6, p.o. q.d. day 0-16, 0.3, 1 and 3 mg/kg; FIG. 9
Protocol: Female Lewis rats were used in this study. Acclimated animals were anesthetized with isoflurane and given the first collagen injection (day 0). On day 6, they were anesthetized again for the second collagen injection. Collagen was prepared by making a 4 mg/mL solution in 0.01 N acetic acid. Equal volumes of collagen and incomplete Freund's adjuvant were emulsified by hand mixing until a bead of this material held its form when placed in water. Each animal received 300 μL of the mixture each time, spread over 3 subcutaneous sites on the back.
Treatment (p.o., q.d., 5 mL/kg dosing volume) began on day 0 and continued through day 16 with vehicle or compounds given at 24 h intervals. Rats were weighed on days 0, 3, 6 and 9 through 17 and caliper measurements of the ankles taken on days 9 through 17. The 2nd enantiomer of compound 12 (isolated after resolution of compound 12 by HPLC, with a retention time of 13.9 min per the conditions reported in Example 1.29) was dosed at 0.3, 1 and 3 mg/kg.

[2] = Cardiac telemetry / bradycardia assay in the rat; format: in vivo; details: male Sprague-Dawley rats, oral, vehicle PEG400, heart rate over a 120 min period; FIG. 11
Protocol: Male Sprague-Dawley rats (250-300 g at time of surgery) were implanted by Charles River Laboratories (Wilmington, Mass.) with cardiac transmitting devices (Data Sciences PhysioTel C50-PXT) into the peritoneal space, with a pressure-sensing catheter inserted into the descending aorta. Rats are allowed at least one week to recover. Rats were housed in individual cages and maintained in a humidity-controlled (30-70%) and temperature-controlled (20-22° C.) facility on a 12 h:12 h light/dark cycle (lights on at 7:00 am) with free access to food (Harlan-Teklad, Orange, Calif., Rodent Diet 8604) and water. Rats were allowed one week of habituation to the animal facility before testing.
The implanted transmitting devices transmitted continuous measurements of blood pressure (systolic, diastolic, mean arterial, pulse), heart rate, body temperature, and motor activity in freely moving conscious animals. […] Telemetry recording occurred over a 21-h period, starting at noon and continuing until 9:00 am the following day. […]
By way of illustration and not limitation, the rats were administered vehicle (PEG 400) and the 2nd enantiomer of compound 12 (isolated after resolution of compound 12 by HPLC, with a retention time of 13.9 min per the conditions reported in Example 1.29) and heart rate was then measured over a 120 min period.

[3] = test system: peripheral blood lymphocyte (PBL) count; assay: Rat peripheral lymphocyte lowering (PLL) assay; format: in vivo; details: male Sprague-Dawley rats, 1.00 mg/kg oral dose, 5 hours post-dose, vs vehicle; FIG. 8
Protocol: as §1, with “Male Sprague-Dawley rats (7” for “Female C57BL/6 mice (8 to 10”, “(Charles River Laboratories)” for “(Jackson Laboratory, Bar Harbor, Me.)”, “two” for “four”, “Rats” for “Mice”
Rats were given a 1.00 mg/kg oral dose of the 2nd enantiomer of compound 12 (isolated after resolution of compound 12 by HPLC, with a retention time of 13.9 min per the conditions reported in Example 1.29) or dosing vehicle (0.5% methylcellulose in sterile water) in a total volume of 1.00 mL/kg. Peripheral blood samples were collected at 5 hours post-dose. Blood was collected via indwelling catheter. A complete cell count (CBC), including lymphocyte count, was obtained using a CELL-DYN® 3700 (Abbott Laboratories, Abbott Park, Ill.) instrument. Results are presented in FIG. 8, in which peripheral blood lymphocyte (PBL) count is shown for the 5 hour group.

S1P1 receptor = target: T1, S1P1 receptor (Homo sapiens, UniProt P21453); assay: HTRF assay for direct cAMP measurement (S1P1 agonism); format: cell-based; details: recombinant CHO-K1 cells stably transfected with S1P1 receptors; decrease of cAMP
T1 construct: expressed in transfected cells; host or cells: CHO-K1 (ATCC CCL-61), stably transfected
Text: Compounds were screened for agonists of the S1P1 receptor (e.g., human S1P1 receptor) using the HTRF® assay for direct cAMP measurement (Gabriel et al., Assay and Drug Development Technologies, 1:291-303, 2003) and recombinant CHO-K1 cells stably transfected with S1P1 receptors. CHO-K1 cells were obtained from ATCC® (Manassas, Va.; Catalog # CCL-61). An agonist of the S1P1 receptor was detected in the HTRF® assay for direct cAMP measurement as a compound which decreased cAMP concentration. HTRF® assay also was used to determine EC50 values for S1P1 receptor agonists.
HTRF® assay kit was purchased from Cisbio-US, Inc. (Bedford, Mass.; Catalog #62AM4PEC). The HTRF® assay supported by the kit is a competitive immunoassay between endogenous cAMP produced by the CHO-K1 cells and tracer cAMP labeled with the dye d2. The tracer binding is visualized by a monoclonal anti-cAMP antibody labeled with Cryptate. The specific signal (i.e., fluorescence resonance energy transfer, FRET) is inversely proportional to the concentration of unlabeled cAMP in the standard or sample.
The fluorescence ratio (665 nm/620 nm) of the standards (0.17 to 712 nM cAMP) included in the assay was calculated and used to generate a cAMP standard curve according to the kit manufacturer's instructions. The fluorescence ratio of the samples (test compound or compound buffer) was calculated and used to deduce respective cAMP concentrations by reference to the cAMP standard curve.
The HTRF® assay was carried out using a two-step protocol essentially according to the kit manufacturer's instructions, in 20 μL total volume per well in 384-well plate format (ProxiPlates; PerkinElmer, Fremont, Calif.; catalog #6008280). […] The plate was then further incubated at room temperature for 1 hour, after which the assay plate was read.
HTRF® readout was accomplished using a PHERAstar (BMG LABTECH Inc., Durham, N.C.) or EnVision™ (PerkinElmer, Fremont Calif.) microplate reader.

S1P3 receptor = S1P3 receptor (Homo sapiens, UniProt Q99500); details: attributed to agonism of the S1P3 receptor; cited from earlier work
[4] = test system: experimental autoimmune myasthenia gravis (EAMG); details: prophylactic oral administration, 1 mg/kg, three times a week, C57BL/6 mice; cited from earlier work

T1 sequence (P21453 whole entry): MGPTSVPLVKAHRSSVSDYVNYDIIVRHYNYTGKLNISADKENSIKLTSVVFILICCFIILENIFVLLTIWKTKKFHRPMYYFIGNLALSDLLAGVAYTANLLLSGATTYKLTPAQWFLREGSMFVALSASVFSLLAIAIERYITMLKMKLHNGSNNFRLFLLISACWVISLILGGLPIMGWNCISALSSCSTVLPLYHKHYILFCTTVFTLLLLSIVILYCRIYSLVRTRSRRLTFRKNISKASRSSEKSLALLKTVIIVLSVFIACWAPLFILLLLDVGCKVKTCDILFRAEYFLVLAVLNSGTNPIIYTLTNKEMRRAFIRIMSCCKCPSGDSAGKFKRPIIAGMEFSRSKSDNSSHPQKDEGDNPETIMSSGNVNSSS
S1P3 receptor, sequence (Q99500 whole entry): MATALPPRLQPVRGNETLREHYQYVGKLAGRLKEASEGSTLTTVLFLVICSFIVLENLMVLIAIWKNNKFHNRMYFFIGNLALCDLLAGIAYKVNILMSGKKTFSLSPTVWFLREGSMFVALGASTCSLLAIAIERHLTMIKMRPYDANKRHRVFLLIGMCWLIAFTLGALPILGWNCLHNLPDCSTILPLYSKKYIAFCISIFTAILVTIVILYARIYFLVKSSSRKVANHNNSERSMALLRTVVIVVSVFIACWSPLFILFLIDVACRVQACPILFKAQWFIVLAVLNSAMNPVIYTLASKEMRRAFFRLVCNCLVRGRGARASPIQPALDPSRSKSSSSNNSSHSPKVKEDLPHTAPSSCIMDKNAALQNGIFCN

SMILES: O=C(O)C[C@H]1CCc2c1[nH]c1ccc(OCc3ccc(C4CCCC4)c(C(F)(F)F)c3)cc21 [2nd enantiomer of compound 12, (R)-2-(7-(4-cyclopentyl-3-(trifluoromethyl)benzyloxy)-1,2,3,4-tetrahydrocyclopenta[b]indol-3-yl)acetic acid]
- reduction of severity of disease symptoms (clinical score) in EAE (MOG-induced EAE): exhibited activity in the mouse EAE assay
- activity for inducing PBL lowering (lymphopenia) ([1]; 1.00 mg/kg oral dose, FIG. 7): exhibited activity for inducing PBL lowering (lymphopenia)
- reduction of mean ankle diameter (mean ankle diameter): exhibited activity for reducing mean ankle diameter
- reduction of heart rate (bradycardia) [2]: no or substantially no reduction of heart rate
- activity for inducing PBL lowering (lymphopenia) [3]: exhibited activity for inducing PBL lowering (lymphopenia)

SMILES: N#Cc1cc(COc2ccc3[nH]c4c(c3c2)CCC4CC(=O)O)cc(OC(F)(F)F)c1 (stereo not drawn) [Compound 4, 2-(7-(3-cyano-5-(trifluoromethoxy)benzyloxy)-1,2,3,4-tetrahydrocyclopenta[b]indol-3-yl)acetic acid]
- pEC50 (S1P1 receptor): 7.80

SMILES: CC(C)Oc1ccc(COc2ccc3[nH]c4c(c3c2)CCC4CC(=O)O)cc1C#N (stereo not drawn) [Compound 5, 2-(7-(3-cyano-4-issopropoxybenzyloxy)-1,2,3,4-tetrahydrocyclopenta[b]indol-3-yl)acetic acid]
- activity for inducing PBL lowering (lymphopenia) ([1]; oral dose, FIGS. 1 and 2): exhibited activity for inducing PBL lowering (lymphopenia)

SMILES: N#Cc1cc(COc2ccc3[nH]c4c(c3c2)CCC4CC(=O)O)ccc1OC(F)(F)F (stereo not drawn) [Compound 7, 2-(7-(3-cyano-4-(trifluoromethoxy)benzyloxy)-1,2,3,4-tetrahydrocyclopenta[b]indol-3-yl)acetic acid]
- activity for inducing PBL lowering (lymphopenia) ([1]; oral dose, FIGS. 1 and 2): exhibited activity for inducing PBL lowering (lymphopenia)

SMILES: O=C(O)CC1CCc2c1[nH]c1ccc(OCc3ccc(C(F)(F)F)cc3C(F)(F)F)cc21 (stereo not drawn) [Compound 8, 2-(7-(2,4-bis(trifluoromethyl)benzyloxy)-1,2,3,4-tetrahydrocyclopenta[b]indol-3-yl)acetic acid]
- pEC50 (S1P1 receptor): 8.05

SMILES: O=C(O)CC1CCc2c1[nH]c1ccc(OCc3cc(C(F)(F)F)cc(C(F)(F)F)c3)cc21 (stereo not drawn) [Compound 10, 2-(7-(3,5-bis(trifluoromethyl)benzyloxy)-1,2,3,4-tetrahydrocyclopenta[b]indol-3-yl)acetic acid]
- pEC50 (S1P1 receptor): 7.59

SMILES: CCCCCCCCc1ccc(CCC(N)(CO)CO)cc1 [FTY720]
- adverse event in clinical trials (S1P3 receptor): transient asymptomatic bradycardia
- development of EAMG [4]: completely prevented
